{"source": "patent US4531001A", "about": "“2-β-D-ribofuranosylselenazole-4-carboxamide compounds” (priority 1983, dated 1985)", "key": {"3 mouse tumor lines": {"system": "3 mouse tumor lines", "experiment": "Growth inhibition in suspension cell culture, representative tumor lines", "format": "cell-based", "procedure": "(§1) In further tests, growth-inhibitory effects of COMPOUND 1 and COMPOUND 2 were measured against 3 mouse tumor lines in suspension cell culture. Cell cultures were initiated at a density of 50,000 cells/ml in medium RPMI 1630 supplemented with 10 percent fetal calf serum. Composition of this culture medium and details of the culture procedure followed the published method (G. E. Moore, A. A. Sandberg and K. Ulrich, Suspension Cell Culture and in vivo and in-vitro chromosome constitution of mouse leukemia L1210, Journal of the National Cancer Institute 36, 405-415, 1966). Cultures were maintained at 37 degrees in stationary suspension culture under a 95 percent air+5 percent CO2 atmosphere. Test compounds were added to treated cultures at the time of initiation, and were present continually. After 72 hours, 40-fold dilutions of drug-treated and untreated control cultures were prepared in 0.9 percent NACl solution, and cells were counted on an electronic particle counter. The growth-inhibitory effects are expressed as ID50 values, namely, test compound inhibitory dosages or concentrations required to decrease cell count in treated cultures to 50 percent of the cell count of untreated control cultures."}, "P388": {"system": "P388", "experiment": "Growth inhibition in suspension cell culture, P388", "format": "cell-based", "details": "Mus musculus, 72 hours, cell count 50 percent of untreated control, read-out: ID50 (the source's name)", "procedure": "as §1"}, "Lewis lung carcinoma": {"system": "Lewis lung carcinoma", "experiment": "Antitumor activity against Lewis lung carcinoma, Example 14 (Table IV)", "format": "in vivo, B6D 2F 1 male mice", "design": "Treated Group Survival Time: unit not given here", "details": "for Treated Group Survival Time: mean, control 19.0", "procedure": "As illustrative examples of the antitumor use of COMPOUNDS 1 and 2, Examples 12 through 14, below, are given. […] The tests utilized in these illustrative examples were conducted by the Developmental Therapeutics Program, Division of Cancer Treatment, National Cancer Institute. The tests were supervised by this agency utilizing their standard protocols and procedures. All tests conformed to these protocols and all tests were evaluated under the criteria defined by these protocols. The following representative examples illustrate confirmed activity of the illustrative compounds of the invention against screening tumor systems of the National Cancer Institute.\nFor purposes of the following examples, the abbreviation IP stands for intraperitoneal and IV stands for intravenous. The mean and median survival times are calculated in instruction 14 (revised 6/78) of the Screening Data Summary, Developmental Therapeutics Program, Division of Cancer Treatment, National Cancer Institute. The contents of this Screening Data Summary including appropriate revisions are herein incorporated by reference.\nIn the illustrated examples below, the vehicle used as carrier for the drug was injected (minus any drug therein) into the control animals at the same level of use of the vehicle in the drug treated animals in order to eliminate any vehicle effect of the tests.\nIn both the control group and the drug treated group in Example 12, the animals were inoculated on day zero with a homogenate of 10^6 seed cells of Lewis lung carcinoma. For Example 12, drug treatment was started on day one and COMPOUND 1 given once daily for nine days. Day five was utilized as the cut-off date for deaths attributable to toxicity of the drug. […] Efficacy of treatment was determined by comparing median survival time of the control animals and is expressed as percentage increase of treated animals/control animals (T/C).\nCOMPOUND 2, 2-(5-phosphono-β-D-ribofuranosyl)selenazole-4-carboxamide was screened for Lewis lung carcinoma activity in a manner similar to that described in Example 12. In this example, B6D 2F 1 male mice were challenged with Lewis lung carcinoma. The mean survival time of the test animals was compared to that of appropriate control animals. […] At 13 mg/kg the treated, surviving mice have a T/C of 315 percent and 4 out of 10 cures were achieved."}, "L-1210": {"system": "L-1210", "experiment": "Growth inhibition in suspension cell culture, L-1210", "format": "cell-based", "details": "Mus musculus, L1210, 72 hours, cell count 50 percent of untreated control, read-out: ID50 (the source's name)", "procedure": "as §1"}, "B16 Melanoma": {"system": "B16 Melanoma", "experiment": "Growth inhibition in suspension cell culture, B16 Melanoma", "format": "cell-based", "details": "Mus musculus, 72 hours, cell count 50 percent of untreated control, read-out: ID50 (the source's name)", "procedure": "as §1"}}, "note": "Several values for one entry are separate records, joined by “and”; a condition that tells them apart may be missing. Equal entries are not always repeated."}
{"smiles": "NC(=O)c1c[se]c([C@@H]2O[C@H](COP(=O)(O)O)[C@@H](O)[C@H]2O)n1", "note": "[COMPOUND 2, 2-β-D-Ribofuranosylselenazole-4-Carboxamide 5'-phosphate]", "values": [{"measurement": "growth inhibition compared with COMPOUND 1, in words", "setting": "3 mouse tumor lines; cell culture", "value": "appears to be superior to COMPOUND 1"}, {"measurement": "growth inhibition in words", "setting": "3 mouse tumor lines; representative tumor lines in cell culture", "value": "inhibit growth in cell culture for representative tumor lines at extremely low dosage"}, {"measurement": "IC50", "setting": "P388", "value": 66, "unit": "nM"}, {"measurement": "Cures", "setting": "Lewis lung carcinoma; 3 mg/kg", "value": "0/10"}, {"measurement": "Percent Treated Animals/Control Animals (T/C)", "setting": "Lewis lung carcinoma; 3 mg/kg", "value": 109, "unit": "%"}, {"measurement": "Treated Group Survival Time", "setting": "Lewis lung carcinoma; 3 mg/kg", "value": 20.8}, {"measurement": "Cures", "setting": "Lewis lung carcinoma; 6 mg/kg", "value": "0/10"}, {"measurement": "Percent Treated Animals/Control Animals (T/C)", "setting": "Lewis lung carcinoma; 6 mg/kg", "value": 115, "unit": "%"}, {"measurement": "Treated Group Survival Time", "setting": "Lewis lung carcinoma; 6 mg/kg", "value": 22.0}, {"measurement": "Cures", "setting": "Lewis lung carcinoma; 9 mg/kg", "value": "1/10"}, {"measurement": "Treated Group Survival Time", "setting": "Lewis lung carcinoma; 9 mg/kg", "value": 12.5}, {"measurement": "Cures", "setting": "Lewis lung carcinoma; 13 mg/kg", "value": "4 out of 10 and 4/10"}, {"measurement": "Percent Treated Animals/Control Animals (T/C)", "setting": "Lewis lung carcinoma; 13 mg/kg", "value": 315, "unit": "%"}, {"measurement": "Treated Group Survival Time", "setting": "Lewis lung carcinoma; 13 mg/kg", "value": 60.0}, {"measurement": "Cures", "setting": "Lewis lung carcinoma; 20 mg/kg", "value": "2/10"}, {"measurement": "Treated Group Survival Time", "setting": "Lewis lung carcinoma; 20 mg/kg", "value": 12.0}, {"measurement": "Cures", "setting": "Lewis lung carcinoma; 33 mg/kg", "value": "3/10"}, {"measurement": "Treated Group Survival Time", "setting": "Lewis lung carcinoma; 33 mg/kg", "value": 12.5}, {"measurement": "Cures", "setting": "Lewis lung carcinoma; 50 mg/kg", "value": "3/10"}, {"measurement": "Treated Group Survival Time", "setting": "Lewis lung carcinoma; 50 mg/kg", "value": 12.5}, {"measurement": "Cures", "setting": "Lewis lung carcinoma; 75 mg/kg", "value": "1/10"}, {"measurement": "Treated Group Survival Time", "setting": "Lewis lung carcinoma; 75 mg/kg", "value": 15.5}, {"measurement": "antitumor activity in words", "setting": "Lewis lung carcinoma; mean survival time versus control", "value": "effective antitumor agent"}, {"measurement": "IC50", "setting": "L-1210", "value": 58, "unit": "nM"}, {"measurement": "IC50", "setting": "B16 Melanoma", "value": 7500, "unit": "nM"}]}
